# According to the NIST ThermoML archive (doi:10.1016/j.jct.2017.07.008):
# Values joined by “and” are separate entries in the source; they are usually repeats but may differ in a detail not shown here. Equal entries are not always repeated. Numbers after ± are expanded uncertainties.
# Conditions: for mass density / viscosity / speed of sound / vapor or sublimation pressure: Liquid; for mass density: Vibrating tube method; for surface tension liquid-gas: Drop volume; for viscosity: Capillary tube (Ostwald / Ubbelohde) method; for speed of sound: Frequency=3 MHz, Single path-length method; for vapor or sublimation pressure: Ebulliometric method (Recirculating still)
structure (smiles),measurement,setting,value
OCc1cccs1 [2-thiophenemethanol],mass density,"313.15 K, 55000 kPa",1216.51 ± 0.8 kg/m3
same,mass density,"313.15 K, 60000 kPa",1218.68 ± 0.83 kg/m3
same,mass density,"313.15 K, 65000 kPa",1220.8 ± 0.87 kg/m3
same,surface tension liquid-gas,315.65 K,41.73 ± 0.29 mN/m
same,viscosity,"315.65 K, 100 kPa",4.147 ± 0.048 mPa·s
same,speed of sound,"315.65 K, 100 kPa",1450.4 ± 0.78 m/s
same,mass density,"315.65 K, 100 kPa",1186.63 ± 0.53 kg/m3
same,surface tension liquid-gas,318.15 K,41.48 ± 0.29 mN/m
same,viscosity,"318.15 K, 100 kPa",3.87 ± 0.045 mPa·s
same,speed of sound,"318.15 K, 100 kPa",1443.2 ± 0.78 m/s
same,mass density,"318.15 K, 100 kPa",1184.39 ± 0.53 kg/m3
same,mass density,"318.15 K, 2000 kPa",1185.52 ± 0.54 kg/m3
same,mass density,"318.15 K, 5000 kPa",1187.27 ± 0.55 kg/m3
same,mass density,"318.15 K, 7000 kPa",1188.42 ± 0.55 kg/m3
same,mass density,"318.15 K, 10000 kPa",1190.12 ± 0.56 kg/m3
same,mass density,"318.15 K, 15000 kPa",1192.88 ± 0.58 kg/m3
same,mass density,"318.15 K, 20000 kPa",1195.57 ± 0.6 kg/m3
same,mass density,"318.15 K, 25000 kPa",1198.18 ± 0.62 kg/m3
same,mass density,"318.15 K, 30000 kPa",1200.72 ± 0.64 kg/m3
same,mass density,"318.15 K, 35000 kPa",1203.2 ± 0.67 kg/m3
same,mass density,"318.15 K, 40000 kPa",1205.62 ± 0.7 kg/m3
same,mass density,"318.15 K, 45000 kPa",1207.98 ± 0.73 kg/m3
same,mass density,"318.15 K, 50000 kPa",1210.29 ± 0.76 kg/m3
same,mass density,"318.15 K, 55000 kPa",1212.54 ± 0.79 kg/m3
same,mass density,"318.15 K, 60000 kPa",1214.74 ± 0.82 kg/m3
same,mass density,"318.15 K, 65000 kPa",1216.9 ± 0.86 kg/m3
same,surface tension liquid-gas,320.65 K,41.22 ± 0.29 mN/m
same,viscosity,"320.65 K, 100 kPa",3.615 ± 0.042 mPa·s
same,speed of sound,"320.65 K, 100 kPa",1436 ± 0.78 m/s
same,mass density,"320.65 K, 100 kPa",1182.14 ± 0.53 kg/m3
same,surface tension liquid-gas,323.15 K,40.95 ± 0.29 mN/m
same,viscosity,"323.15 K, 100 kPa",3.355 ± 0.039 mPa·s
same,speed of sound,"323.15 K, 100 kPa",1428.8 ± 0.78 m/s
same,mass density,"323.15 K, 100 kPa",1179.88 ± 0.53 kg/m3
same,mass density,"323.15 K, 2000 kPa",1181.03 ± 0.54 kg/m3
same,mass density,"323.15 K, 5000 kPa",1182.82 ± 0.54 kg/m3
same,mass density,"323.15 K, 7000 kPa",1183.99 ± 0.55 kg/m3
same,mass density,"323.15 K, 10000 kPa",1185.73 ± 0.56 kg/m3
same,mass density,"323.15 K, 15000 kPa",1188.55 ± 0.58 kg/m3
same,mass density,"323.15 K, 20000 kPa",1191.29 ± 0.6 kg/m3
same,mass density,"323.15 K, 25000 kPa",1193.95 ± 0.62 kg/m3
same,mass density,"323.15 K, 30000 kPa",1196.55 ± 0.64 kg/m3
same,mass density,"323.15 K, 35000 kPa",1199.07 ± 0.66 kg/m3
same,mass density,"323.15 K, 40000 kPa",1201.53 ± 0.69 kg/m3
same,mass density,"323.15 K, 45000 kPa",1203.93 ± 0.72 kg/m3
same,mass density,"323.15 K, 50000 kPa",1206.28 ± 0.75 kg/m3
same,mass density,"323.15 K, 55000 kPa",1208.56 ± 0.78 kg/m3
same,mass density,"323.15 K, 60000 kPa",1210.8 ± 0.82 kg/m3
same,mass density,"323.15 K, 65000 kPa",1212.99 ± 0.85 kg/m3
same,surface tension liquid-gas,325.65 K,40.67 ± 0.29 mN/m
same,viscosity,"325.65 K, 100 kPa",3.17 ± 0.037 mPa·s
same,speed of sound,"325.65 K, 100 kPa",1421.6 ± 0.78 m/s
same,mass density,"325.65 K, 100 kPa",1177.63 ± 0.53 kg/m3
same,surface tension liquid-gas,328.15 K,40.4 ± 0.29 mN/m
same,viscosity,"328.15 K, 100 kPa",2.957 ± 0.034 mPa·s
same,speed of sound,"328.15 K, 100 kPa",1414.5 ± 0.78 m/s
same,mass density,"328.15 K, 100 kPa",1175.35 ± 0.53 kg/m3 and 1175.36 ± 0.53 kg/m3
same,mass density,"328.15 K, 2000 kPa",1176.53 ± 0.54 kg/m3
same,mass density,"328.15 K, 5000 kPa",1178.35 ± 0.54 kg/m3
same,mass density,"328.15 K, 7000 kPa",1179.55 ± 0.55 kg/m3
same,mass density,"328.15 K, 10000 kPa",1181.33 ± 0.56 kg/m3
same,mass density,"328.15 K, 15000 kPa",1184.21 ± 0.57 kg/m3
same,mass density,"328.15 K, 20000 kPa",1187 ± 0.59 kg/m3
same,mass density,"328.15 K, 25000 kPa",1189.72 ± 0.61 kg/m3
same,mass density,"328.15 K, 30000 kPa",1192.36 ± 0.64 kg/m3
same,mass density,"328.15 K, 35000 kPa",1194.93 ± 0.66 kg/m3
same,mass density,"328.15 K, 40000 kPa",1197.44 ± 0.69 kg/m3
same,mass density,"328.15 K, 45000 kPa",1199.88 ± 0.71 kg/m3
same,mass density,"328.15 K, 50000 kPa",1202.26 ± 0.74 kg/m3
same,mass density,"328.15 K, 55000 kPa",1204.58 ± 0.78 kg/m3
same,mass density,"328.15 K, 60000 kPa",1206.86 ± 0.81 kg/m3
same,mass density,"328.15 K, 65000 kPa",1209.08 ± 0.84 kg/m3
same,surface tension liquid-gas,330.65 K,40.1 ± 0.29 mN/m
same,viscosity,"330.65 K, 100 kPa",2.785 ± 0.032 mPa·s
same,speed of sound,"330.65 K, 100 kPa",1407.3 ± 0.78 m/s
same,mass density,"330.65 K, 100 kPa",1173.09 ± 0.53 kg/m3
same,surface tension liquid-gas,333.15 K,39.8 ± 0.29 mN/m
same,viscosity,"333.15 K, 100 kPa",2.628 ± 0.031 mPa·s
same,speed of sound,"333.15 K, 100 kPa",1400.1 ± 0.78 m/s
same,mass density,"333.15 K, 100 kPa",1170.8 ± 0.53 kg/m3 and 1170.82 ± 0.53 kg/m3
same,mass density,"333.15 K, 2000 kPa",1172 ± 0.54 kg/m3
same,mass density,"333.15 K, 5000 kPa",1173.87 ± 0.54 kg/m3
same,mass density,"333.15 K, 7000 kPa",1175.1 ± 0.55 kg/m3
same,mass density,"333.15 K, 10000 kPa",1176.91 ± 0.56 kg/m3
same,mass density,"333.15 K, 15000 kPa",1179.85 ± 0.57 kg/m3
same,mass density,"333.15 K, 20000 kPa",1182.7 ± 0.59 kg/m3
same,mass density,"333.15 K, 25000 kPa",1185.47 ± 0.61 kg/m3
same,mass density,"333.15 K, 30000 kPa",1188.16 ± 0.63 kg/m3
same,mass density,"333.15 K, 35000 kPa",1190.78 ± 0.66 kg/m3
same,mass density,"333.15 K, 40000 kPa",1193.33 ± 0.68 kg/m3
same,mass density,"333.15 K, 45000 kPa",1195.82 ± 0.71 kg/m3
same,mass density,"333.15 K, 50000 kPa",1198.24 ± 0.74 kg/m3
same,mass density,"333.15 K, 55000 kPa",1200.6 ± 0.77 kg/m3
same,mass density,"333.15 K, 60000 kPa",1202.91 ± 0.8 kg/m3
same,mass density,"333.15 K, 65000 kPa",1205.17 ± 0.83 kg/m3
same,surface tension liquid-gas,335.65 K,39.51 ± 0.29 mN/m
same,viscosity,"335.65 K, 100 kPa",2.486 ± 0.029 mPa·s
same,speed of sound,"335.65 K, 100 kPa",1392.9 ± 0.78 m/s
same,mass density,"335.65 K, 100 kPa",1168.53 ± 0.53 kg/m3
same,surface tension liquid-gas,338.15 K,39.24 ± 0.29 mN/m
same,viscosity,"338.15 K, 100 kPa",2.372 ± 0.028 mPa·s
same,speed of sound,"338.15 K, 100 kPa",1385.8 ± 0.78 m/s
same,mass density,"338.15 K, 100 kPa",1166.23 ± 0.53 kg/m3 and 1166.25 ± 0.53 kg/m3
same,mass density,"338.15 K, 2000 kPa",1167.46 ± 0.53 kg/m3
same,mass density,"338.15 K, 5000 kPa",1169.37 ± 0.54 kg/m3
same,mass density,"338.15 K, 7000 kPa",1170.63 ± 0.55 kg/m3
same,mass density,"338.15 K, 10000 kPa",1172.48 ± 0.55 kg/m3
same,mass density,"338.15 K, 15000 kPa",1175.48 ± 0.57 kg/m3
same,mass density,"338.15 K, 20000 kPa",1178.39 ± 0.59 kg/m3
same,mass density,"338.15 K, 25000 kPa",1181.22 ± 0.61 kg/m3
same,mass density,"338.15 K, 30000 kPa",1183.96 ± 0.63 kg/m3
same,mass density,"338.15 K, 35000 kPa",1186.63 ± 0.65 kg/m3
same,mass density,"338.15 K, 40000 kPa",1189.22 ± 0.68 kg/m3
same,mass density,"338.15 K, 45000 kPa",1191.75 ± 0.7 kg/m3
same,mass density,"338.15 K, 50000 kPa",1194.21 ± 0.73 kg/m3
same,mass density,"338.15 K, 55000 kPa",1196.62 ± 0.76 kg/m3
same,mass density,"338.15 K, 60000 kPa",1198.96 ± 0.79 kg/m3
same,mass density,"338.15 K, 65000 kPa",1201.25 ± 0.82 kg/m3
same,vapor or sublimation pressure,351.15 K,0.545 ± 0.1 kPa
same,vapor or sublimation pressure,354.25 K,0.665 ± 0.1 kPa
same,vapor or sublimation pressure,357.17 K,0.785 ± 0.1 kPa
same,vapor or sublimation pressure,361.3 K,1.025 ± 0.1 kPa
same,vapor or sublimation pressure,365.19 K,1.275 ± 0.1 kPa
same,vapor or sublimation pressure,366.38 K,1.355 ± 0.1 kPa
same,vapor or sublimation pressure,367.49 K,1.415 ± 0.1 kPa
same,vapor or sublimation pressure,368.14 K,1.475 ± 0.1 kPa
same,vapor or sublimation pressure,369.77 K,1.61 ± 0.1 kPa
same,vapor or sublimation pressure,372.56 K,1.88 ± 0.1 kPa
same,vapor or sublimation pressure,373.21 K,1.96 ± 0.1 kPa
same,vapor or sublimation pressure,377.74 K,2.44 ± 0.1 kPa
same,vapor or sublimation pressure,382.13 K,3.06 ± 0.1 kPa
same,vapor or sublimation pressure,386.07 K,3.675 ± 0.1 kPa
same,vapor or sublimation pressure,387.56 K,3.93 ± 0.1 kPa
same,vapor or sublimation pressure,388.56 K,4.15 ± 0.1 kPa
same,vapor or sublimation pressure,391.84 K,4.77 ± 0.1 kPa
same,vapor or sublimation pressure,393.87 K,5.25 ± 0.1 kPa
same,vapor or sublimation pressure,397.94 K,6.25 ± 0.1 kPa
same,vapor or sublimation pressure,399.72 K,6.8 ± 0.1 kPa
same,vapor or sublimation pressure,402.41 K,7.6 ± 0.1 kPa
same,vapor or sublimation pressure,404.37 K,8.25 ± 0.1 kPa
same,vapor or sublimation pressure,406.56 K,9 ± 0.1 kPa
same,vapor or sublimation pressure,408.27 K,9.665 ± 0.1 kPa
same,vapor or sublimation pressure,411.5 K,10.96 ± 0.1 kPa
same,vapor or sublimation pressure,415.06 K,12.6 ± 0.1 kPa
same,vapor or sublimation pressure,416.56 K,13.38 ± 0.1 kPa
same,vapor or sublimation pressure,418.63 K,14.47 ± 0.1 kPa
same,vapor or sublimation pressure,420.23 K,15.36 ± 0.1 kPa
same,vapor or sublimation pressure,422.21 K,16.51 ± 0.1 kPa
same,vapor or sublimation pressure,424.64 K,18.05 ± 0.1 kPa
same,vapor or sublimation pressure,426.07 K,19 ± 0.1 kPa
same,vapor or sublimation pressure,428.27 K,20.52 ± 0.1 kPa
same,vapor or sublimation pressure,429.37 K,21.34 ± 0.11 kPa
same,vapor or sublimation pressure,431.17 K,22.77 ± 0.11 kPa
same,vapor or sublimation pressure,432.56 K,23.88 ± 0.11 kPa
same,vapor or sublimation pressure,433.65 K,24.78 ± 0.11 kPa
